Test results reported in ChEMBL document CHEMBL2176937, “Small-molecule structure correctors target abnormal protein structure and function: structure corrector rescue of apolipoprotein E4-associated neuropathology” (J Med Chem, 2012).

Key:
[1] = Inhibition of apoE4 expressed in Neuro2a cells assessed as increase in COX1 level by Western blot assay; type: cell-based; conditions: N2a
[2] = Inhibition of apoE4 expressed in rat PC12 cells assessed as reversal of mitochondrial impairment; type: cell-based; conditions: pc-12

Compound	IC50 [1] [nM]	EC50 [2] [nM]
Cn1nc(CC(=O)Nc2ccc(CN3CCN(C(=O)OC(C)(C)C)CC3)cc2)c2ccccc2c1=O	41	
Cn1nc(CC(=O)Nc2cccc(-c3ccc(C#N)cc3)c2)c2ccccc2c1=O		< 1
